Test results published in ChEMBL document CHEMBL1141584, “Synthesis, biological evaluation and molecular modelling studies of methyleneimidazole substituted biaryls as inhibitors of human 17alpha-hydroxylase-17,20-lyase (CYP17). Part I: Heterocyclic modifications of the core structure” (Bioorg Med Chem, 2008).
Values belong to the molecule of their own block, whether it stands above or below them.

Experiments:
[1] = target: T1, Steroid 17-alpha-hydroxylase/17,20 lyase (Homo sapiens, UniProt P05093); test: Inhibition of human CYP17 expressed in Escherichia coli co-expressed with NADPH-P450 reductase at 0.2 uM
T1 sequence (P05093 whole entry): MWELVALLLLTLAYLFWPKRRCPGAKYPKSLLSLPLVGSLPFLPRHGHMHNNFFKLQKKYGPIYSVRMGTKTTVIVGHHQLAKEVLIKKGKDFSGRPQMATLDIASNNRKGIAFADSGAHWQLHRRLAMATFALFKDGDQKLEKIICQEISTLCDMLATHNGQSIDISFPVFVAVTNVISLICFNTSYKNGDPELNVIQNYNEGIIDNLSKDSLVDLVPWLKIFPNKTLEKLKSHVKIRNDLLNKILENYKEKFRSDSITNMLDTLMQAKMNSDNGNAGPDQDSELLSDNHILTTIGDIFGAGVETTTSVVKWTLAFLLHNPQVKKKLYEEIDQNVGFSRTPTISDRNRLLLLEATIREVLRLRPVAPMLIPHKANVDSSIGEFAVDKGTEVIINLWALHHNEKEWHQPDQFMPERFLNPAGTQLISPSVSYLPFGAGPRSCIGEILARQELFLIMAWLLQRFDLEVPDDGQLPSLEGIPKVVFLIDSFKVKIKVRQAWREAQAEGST

[2] = target: T1, Steroid 17-alpha-hydroxylase/17,20 lyase; test: Inhibition of human CYP17 expressed in Escherichia coli co-expressed with NADPH-P450 reductase at 2 uM
[3] = target: T2, CYP2C19 (Homo sapiens, UniProt P33261); test: Inhibition of recombinant CYP2C19 at 1 uM; type: ADME
[4] = target: T3, CYP2C9 (Homo sapiens, UniProt P11712); test: Inhibition of recombinant CYP2C9 at 1 uM; type: ADME
[5] = target: T4, CYP1A2 (Homo sapiens, UniProt P05177); test: Inhibition of recombinant CYP1A2 at 10 uM; type: ADME
T4 sequence (P05177 whole entry): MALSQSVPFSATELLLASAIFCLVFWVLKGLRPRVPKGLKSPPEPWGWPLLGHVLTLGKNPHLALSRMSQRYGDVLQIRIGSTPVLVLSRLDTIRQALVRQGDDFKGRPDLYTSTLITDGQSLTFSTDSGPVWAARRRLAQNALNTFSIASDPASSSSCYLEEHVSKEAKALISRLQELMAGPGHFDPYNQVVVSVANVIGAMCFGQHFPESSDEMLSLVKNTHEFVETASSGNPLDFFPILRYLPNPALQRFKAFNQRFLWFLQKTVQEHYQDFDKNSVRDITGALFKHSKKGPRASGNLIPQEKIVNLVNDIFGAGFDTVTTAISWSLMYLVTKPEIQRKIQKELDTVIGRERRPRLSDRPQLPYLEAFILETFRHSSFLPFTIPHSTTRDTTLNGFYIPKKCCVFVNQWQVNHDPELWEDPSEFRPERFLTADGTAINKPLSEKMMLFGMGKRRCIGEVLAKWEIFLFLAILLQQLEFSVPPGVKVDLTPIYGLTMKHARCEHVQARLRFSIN

[6] = target: T3, CYP2C9; test: Inhibition of recombinant CYP2C9 at 10 uM; type: ADME
[7] = target: T4, CYP1A2; test: Inhibition of recombinant CYP1A2 at 1 uM; type: ADME
[8] = target: T2, CYP2C19; test: Inhibition of recombinant CYP2C19 at 10 uM; type: ADME
[9] = target: T5, CYP3A4 (Homo sapiens, UniProt P08684); test: Inhibition of recombinant CYP3A4 at 10 uM; type: ADME
[10] = Total body clearance in Wistar rat at 50 mg/kg, po; type: ADME, organism-based; parameters: dose 50 mg/kg, route oral; details: in vivo
[11] = target: T1, Steroid 17-alpha-hydroxylase/17,20 lyase; test: Inhibition of human CYP17 expressed in Escherichia coli co-expressed with NADPH-P450 reductase
[12] = target: T6, CYP2D6 (Homo sapiens, UniProt P10635); test: Inhibition of recombinant CYP2D6 at 1 uM; type: ADME
[13] = tested on: Rattus norvegicus; test: Reduction of testosterone level in Wistar rat plasma at 50 mg/kg, po after 6 hrs by ELISA relative to pretreatment value; type: functional; parameters: scale not given: the % may be the effect or the level left
[14] = tested on: Rattus norvegicus; test: Reduction of testosterone level in Wistar rat plasma at 50 mg/kg, po after 1 hr by ELISA relative to pretreatment value; type: functional; parameters: scale not given: the % may be the effect or the level left
[15] = target: T6, CYP2D6; test: Inhibition of recombinant CYP2D6 at 10 uM; type: ADME
[16] = tested on: Rattus norvegicus; test: Reduction of testosterone level in Wistar rat at 50 mg/kg, po after 4 hrs by ELISA relative to pretreatment value; type: functional; parameters: scale not given: the % may be the effect or the level left
[17] = target: T7, Steroid 17-alpha-hydroxylase/17,20 lyase (Rattus norvegicus, UniProt P11715); test: Inhibition of Sprague-Dawley rat testicular CYP17
T7 sequence (P11715 whole entry): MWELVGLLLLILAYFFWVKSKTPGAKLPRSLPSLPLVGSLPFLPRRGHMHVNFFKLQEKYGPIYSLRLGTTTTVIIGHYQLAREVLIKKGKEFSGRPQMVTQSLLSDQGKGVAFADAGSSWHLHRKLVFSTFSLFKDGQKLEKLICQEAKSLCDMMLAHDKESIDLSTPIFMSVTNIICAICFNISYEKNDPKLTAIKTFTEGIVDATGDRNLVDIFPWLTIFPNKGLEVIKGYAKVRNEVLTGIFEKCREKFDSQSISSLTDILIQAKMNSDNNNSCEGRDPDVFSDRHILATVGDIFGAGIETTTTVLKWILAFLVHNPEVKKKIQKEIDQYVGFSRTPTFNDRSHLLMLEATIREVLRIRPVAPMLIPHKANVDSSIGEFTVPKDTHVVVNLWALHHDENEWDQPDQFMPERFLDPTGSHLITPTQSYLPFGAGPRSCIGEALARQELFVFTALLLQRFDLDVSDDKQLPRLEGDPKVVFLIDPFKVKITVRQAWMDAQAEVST

[18] = target: T8, CYP2B6 (Homo sapiens, UniProt P20813); test: Inhibition of recombinant CYP2B6 at 1 uM; type: ADME
T8 sequence (P20813 whole entry): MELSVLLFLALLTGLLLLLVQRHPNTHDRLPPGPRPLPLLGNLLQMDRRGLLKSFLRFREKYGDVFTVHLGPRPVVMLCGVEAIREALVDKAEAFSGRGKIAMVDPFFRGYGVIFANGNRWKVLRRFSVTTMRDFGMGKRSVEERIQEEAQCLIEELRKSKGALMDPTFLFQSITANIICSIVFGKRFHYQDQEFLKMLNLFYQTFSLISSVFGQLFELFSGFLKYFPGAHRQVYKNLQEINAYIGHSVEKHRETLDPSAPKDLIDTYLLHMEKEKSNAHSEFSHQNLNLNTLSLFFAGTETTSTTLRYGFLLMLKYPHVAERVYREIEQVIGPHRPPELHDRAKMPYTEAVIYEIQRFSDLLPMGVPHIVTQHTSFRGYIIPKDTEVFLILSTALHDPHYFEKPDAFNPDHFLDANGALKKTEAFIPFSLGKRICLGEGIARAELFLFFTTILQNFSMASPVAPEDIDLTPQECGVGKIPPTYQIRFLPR

[19] = AUC (0 to infinity) in Wistar rat at 50 mg/kg, po; type: ADME, organism-based; parameters: time infinity, dose 50 mg/kg, route oral; details: plasma
[20] = Cmax in Wistar rat at 50 mg/kg, po; type: ADME, organism-based; parameters: dose 50 mg/kg, route oral; details: in vivo
[21] = Tmax in Wistar rat at 50 mg/kg, po; type: ADME, organism-based; parameters: dose 50 mg/kg, route oral; details: in vivo
[22] = Terminal half life in Wistar rat plasma at 50 mg/kg, po; type: ADME, organism-based; parameters: dose 50 mg/kg, route oral
[23] = target: T5, CYP3A4; test: Inhibition of recombinant CYP3A4 at 1 uM; type: ADME
[24] = target: T8, CYP2B6; test: Inhibition of recombinant CYP2B6 at 10 uM; type: ADME
[25] = tested on: Rattus norvegicus; test: Reduction of testosterone level in Wistar rat plasma at 50 mg/kg, po after 8 hrs by ELISA relative to pretreatment value; type: functional; parameters: scale not given: the % may be the effect or the level left

T3 sequence (P11712 whole entry): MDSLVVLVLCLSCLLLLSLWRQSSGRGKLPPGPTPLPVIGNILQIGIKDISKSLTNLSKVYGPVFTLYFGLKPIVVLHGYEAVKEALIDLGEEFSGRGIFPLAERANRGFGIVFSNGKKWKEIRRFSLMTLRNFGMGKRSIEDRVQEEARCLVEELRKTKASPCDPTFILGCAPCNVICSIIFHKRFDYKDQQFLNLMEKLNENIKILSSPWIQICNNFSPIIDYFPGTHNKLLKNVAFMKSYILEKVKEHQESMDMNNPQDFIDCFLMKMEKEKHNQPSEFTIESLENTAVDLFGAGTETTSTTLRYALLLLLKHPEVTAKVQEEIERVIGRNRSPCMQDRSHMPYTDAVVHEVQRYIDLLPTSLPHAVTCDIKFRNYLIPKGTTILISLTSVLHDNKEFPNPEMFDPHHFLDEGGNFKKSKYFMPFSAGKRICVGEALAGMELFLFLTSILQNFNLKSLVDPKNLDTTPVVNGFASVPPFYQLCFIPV
T2 sequence (P33261 whole entry): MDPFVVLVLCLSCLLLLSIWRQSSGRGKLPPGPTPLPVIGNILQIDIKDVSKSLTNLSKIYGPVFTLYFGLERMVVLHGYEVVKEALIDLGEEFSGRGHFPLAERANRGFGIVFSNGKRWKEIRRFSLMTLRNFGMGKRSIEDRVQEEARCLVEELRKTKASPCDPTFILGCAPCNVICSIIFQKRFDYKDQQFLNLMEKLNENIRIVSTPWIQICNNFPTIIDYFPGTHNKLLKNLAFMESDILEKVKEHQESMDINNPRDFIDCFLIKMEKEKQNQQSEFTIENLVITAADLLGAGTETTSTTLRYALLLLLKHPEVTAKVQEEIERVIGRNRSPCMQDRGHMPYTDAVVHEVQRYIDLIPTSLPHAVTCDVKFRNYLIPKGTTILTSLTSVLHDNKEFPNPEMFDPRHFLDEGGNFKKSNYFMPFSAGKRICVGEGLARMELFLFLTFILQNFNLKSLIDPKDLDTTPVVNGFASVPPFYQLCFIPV
T5 sequence (P08684 whole entry): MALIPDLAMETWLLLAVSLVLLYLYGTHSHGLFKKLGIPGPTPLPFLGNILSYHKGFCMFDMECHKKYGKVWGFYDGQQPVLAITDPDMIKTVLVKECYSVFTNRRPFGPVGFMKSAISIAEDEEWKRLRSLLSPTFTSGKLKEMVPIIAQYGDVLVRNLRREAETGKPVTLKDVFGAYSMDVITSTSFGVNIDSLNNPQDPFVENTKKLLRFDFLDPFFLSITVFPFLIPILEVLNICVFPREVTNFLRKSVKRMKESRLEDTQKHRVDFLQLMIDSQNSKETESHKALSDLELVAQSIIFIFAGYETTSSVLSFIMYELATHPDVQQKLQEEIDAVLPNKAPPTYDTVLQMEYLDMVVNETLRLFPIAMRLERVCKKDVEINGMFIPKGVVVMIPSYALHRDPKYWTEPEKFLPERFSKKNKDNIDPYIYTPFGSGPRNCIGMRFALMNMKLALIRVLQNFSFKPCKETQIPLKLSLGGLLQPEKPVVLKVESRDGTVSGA
T6 sequence (P10635 whole entry): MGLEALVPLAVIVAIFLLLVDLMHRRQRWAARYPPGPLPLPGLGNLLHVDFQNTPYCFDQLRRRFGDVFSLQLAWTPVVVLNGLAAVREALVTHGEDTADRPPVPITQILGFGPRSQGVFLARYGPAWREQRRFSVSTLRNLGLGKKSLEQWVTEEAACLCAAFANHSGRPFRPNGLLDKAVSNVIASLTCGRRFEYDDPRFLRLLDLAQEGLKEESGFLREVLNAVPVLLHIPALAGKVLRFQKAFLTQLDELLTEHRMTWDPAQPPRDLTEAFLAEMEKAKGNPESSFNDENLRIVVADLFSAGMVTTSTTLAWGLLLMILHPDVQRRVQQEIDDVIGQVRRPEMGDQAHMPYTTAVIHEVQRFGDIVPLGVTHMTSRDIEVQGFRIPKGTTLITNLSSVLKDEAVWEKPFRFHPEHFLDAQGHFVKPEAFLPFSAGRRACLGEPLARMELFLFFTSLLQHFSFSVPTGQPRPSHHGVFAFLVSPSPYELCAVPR

Compound: COc1cccc(-c2ccc(Cn3ccnc3)cn2)c1
- inhibition at 0.2 µM [1]: 0%
- inhibition at 2 µM [2]: 1%

Compound: CCC(c1ccc(-c2ccc(SC)s2)cc1)n1ccnc1 (stereo unspecified)
- inhibition at 0.2 µM [1]: 2%
- inhibition at 2 µM [2]: 3%

Compound: Fc1ccc(-c2ccc(Cn3ccnc3)nc2)cc1
- inhibition at 0.2 µM [1]: 0%
- inhibition at 2 µM [2]: 2%

Compound: COc1ccc(-c2csc(Cn3ccnc3)c2)cc1OC
- inhibition at 0.2 µM [1]: 0%
- inhibition at 2 µM [2]: 14%

Compound: Fc1ccc(-c2ccc(Cn3ccnc3)cn2)cc1
- inhibition at 0.2 µM [1]: 5%
- inhibition at 2 µM [2]: 5%

Compound: CC(c1ccc(-c2ccsc2)cc1)n1ccnc1 (stereo unspecified)
- inhibition at 10 µM [9]: 94%
- CL/F [10]: 33.5 mL/min/kg
- IC50 [11]: 953 nM
- inhibition at 1 µM [3]: 87%
- inhibition at 1 µM [12]: 17%
- Activity [13]: 29.7%
- inhibition at 1 µM [4]: 75%
- Activity [14]: 30.9%
- inhibition at 10 µM [15]: 68%
- Activity [16]: 25.9%
- IC50 [17]: 676 nM
- inhibition at 10 µM [5]: 100%
- inhibition at 0.2 µM [1]: 21%
- inhibition at 10 µM [6]: 89%
- inhibition at 2 µM [2]: 67%
- inhibition at 1 µM [18]: 49%
- AUC(0-inf) [19]: 24900 ng·h/mL
- Cmax [20]: 1280 ng/mL
- Tmax [21]: 1 h
- half-life [22]: 9.5 h
- inhibition at 1 µM [23]: 80%
- inhibition at 10 µM [24]: 87%
- inhibition at 1 µM [7]: 97%
- inhibition at 10 µM [8]: 99%
- Activity [25]: 34.1%

Compound: c1cn(Cc2ccc(-c3ccoc3)cc2)cn1
- inhibition at 0.2 µM [1]: 3%
- inhibition at 2 µM [2]: 29%

Further lines, results first:

- inhibition at 0.2 µM [1]: 1%
- inhibition at 2 µM [2]: 2%
Compound: COc1ccc(-c2ccc(Cn3ccnc3)cn2)cc1OC

- inhibition at 0.2 µM [1]: 0%
- inhibition at 2 µM [2]: 0%
Compound: COc1ccc(-c2ccc(Cn3ccnc3)cn2)cc1

- inhibition at 0.2 µM [1]: 3%
- inhibition at 2 µM [2]: 35%
Compound: CSc1ccc(-c2ccc(Cn3ccnc3)cc2)s1

- inhibition at 0.2 µM [1]: 5%
- inhibition at 2 µM [2]: 12%
Compound: CC(c1ccc(N2CCOCC2)cc1)n1ccnc1 (stereo unspecified)

- inhibition at 0.2 µM [1]: 4%
- inhibition at 2 µM [2]: 13%
Compound: Fc1ccc(-c2ccc(Cn3ccnc3)cc2)cn1

- inhibition at 0.2 µM [1]: 9%
- inhibition at 2 µM [2]: 24%
Compound: ClCc1ccc(-c2ccc(Cn3ccnc3)cc2)cn1

- inhibition at 1 µM [3]: 95%
- inhibition at 1 µM [4]: 94%
- inhibition at 10 µM [5]: 96%
- inhibition at 0.2 µM [1]: 17%
- inhibition at 10 µM [6]: 100%
- inhibition at 2 µM [2]: 68%
- inhibition at 1 µM [7]: 93%
- inhibition at 10 µM [8]: 97%
Compound: CCC(c1cc(-c2ccc(F)c(F)c2)cs1)n1ccnc1 (stereo unspecified)

- inhibition at 0.2 µM [1]: 2%
- inhibition at 2 µM [2]: 3%
Compound: Nc1cccc(-c2ccc(Cn3ccnc3)cn2)c1

- inhibition at 0.2 µM [1]: 0%
- inhibition at 2 µM [2]: 24%
Compound: COc1cccc(-c2csc(Cn3ccnc3)c2)c1
